We go through four compounds from patent publication US12589229B2, “Macroporous solid hard microneedles with embedded particulate drugs” (priority 2021, dated 2026).

Data set [1] can be described thus: In vitro dye release from dye-loaded microneedle patch into parafilm-covered gelatin. It counts as physicochemical. Particulars: 10% gelatin covered with parafilm. The method, then:
In order to show in vitro release of the microneedles visually, a resin/dye paste was prepared. A biocompatible resin (Dental SG) from Formlabs (Somerville, MA, USA) and sulforhodamine B (SKU: 230162-5G, MilliporeSigma; Burlington, MA, USA) as dye were used. Due to the small size of the microneedles, the dye particles were ground into finer particles with smaller sizes. The encapsulation of unground and ground dye in microneedles was compared by preparing microneedles with both unground and ground sulforhodamine B particles. The unground and ground particles of the dye are shown in FIGS. 35a and 35b, respectively, and the size distribution of the unground and ground dye is shown in FIG. 35c. On average, the unground and ground dye particles had particle sizes of about 50 micrometers and 6 micrometers, respectively. […] A solid acrylic ring was added around the substrate so that the microneedle patch could be held and applied easily (see FIG. 35g). The in vitro dye release experiment is shown schematically in FIG. 35h. A 10% gelatin (gelatin from porcine skin, SKU: G2500-1KG from Millipore Sigma) solution was prepared as a model tissue and was poured in a petri dish. Then, it was placed in the refrigerator for 20 minutes to further solidify. A thin layer of parafilm (Parafilm ° M, Amcor; Zurich, Switzerland) was then used as a skin model to cover the gelatin solution in the petri dish.

A short description of data set [2]: FTIR spectroscopy of drug encapsulated in resin microneedles (changes during fabrication). Conditions: drug encapsulated in cured resin microneedle vs powder. It counts as physicochemical. An excerpt:
FTIR spectroscopy was used to evaluate possible changes in the encapsulated drugs during the fabrication process. A Nicolet 6700 (ThermoScientific™; Waltham, MA, USA) with a Smart™ iTX ATR accessory having a diamond crystal was used. […] In FTIR, an increase in the peak intensity usually reflects an increase in the amount (per unit volume) of the functional group associated with the molecular bond, whereas a shift in peak position usually reflects a change in the hybridization state or electron distribution in the molecular bond. […] The peaks at 1721 cm^−1 and 3400 cm^−1 are assigned to the stretching vibrations of C═O and O—H, respectively.

The subject of data set [3] is circulating B cells. Kind of data set: In vivo primate study, rituximab IV versus microneedle transdermal delivery, circulating B cells by flow cytometry. More on the design: species or system African green monkeys. Particulars: IV dosing, first week. The method, then:
An in vivo primate study was performed to compare the systemic pharmacodynamic effect of rituximab (RTX) following intravenous (IV) delivery versus microneedle-mediated, transdermal (TD) delivery in African green monkeys. […] The pharmacodynamic effect was quantified by the measurement of circulating B cells by flow cytometry (all these graphs are generated by flow cytometry), employing rituximab as a tool compound to assess the ability of a novel microneedle formulation and delivery technology to achieve systemic bioavailability of macromolecules (e.g. monoclonal antibodies) following transdermal delivery. […] The depletion over time for the two patches is shown in FIG. 29 for 0, 1, 7, 14 and 21 days.

For data set [4], the system named is CD20+ cells. Kind of data set: In vitro whole blood assay with RTX-loaded microneedle patches, flow cytometry. In kind it is cell-based, human. The method, then: To evaluate the effectiveness of the treatment being delivered through microneedles an in vitro model, a whole blood assay was performed using Rituximab (RTX) as the drug. Rituximab is a chimeric monoclonal antibody against the protein CD20, which is primarily found on the surface of immune system B cells. When it binds to this protein it triggers cell death via Complement-Dependent Cytotoxicity (CDC). RTX is a good model to evaluate the mAb delivery mechanism mainly because of its clear pharmacodynamics outcome, the depletion of CD20+B-Cell in whole blood. Microneedle patches with five different amounts of RTX and a constant polymer-to-drug ratio were incubated in freshly collected human blood in a 24-well plate. Flow cytometry was used to quantify CD20+ and CD19+ cells in each well. […] CD20+ cells are present in samples (a) through (c) on the left but absent from samples (d) through (f) on the right. The conditions are as follows: (a) Buffy coat and serum without microneedle (MN) exposure and prior to incubation; (b) Blood without MN exposure and after 4 h incubation; (c) Blood with exposure to an inert MN after incubation; (d) Blood after incubation with one MN (20 μg RTX); (e) blood after incubation with five MNs (100 μg RTX); and (f) blood after incubation with 200 MNs (4 mg RTX). […]

Where a name gives a salt, the structure may show the parent alone.

In the case of `CCN(CC)c1ccc2c(-c3ccc(S(=O)(=O)O)cc3S(=O)(=O)[O-])c3ccc(=[N+](CC)CC)cc-3oc2c1` [sulforhodamine B], the “release of the dye into the gelatin solution” value in data set [1] is “visible release”.
In the case of `CCN(CC)CC(=O)Nc1c(C)cccc1C` [lidocaine, lidocaine hydrochloride monohydrate], the “chemical structure during the fabrication process (FTIR)” value in data set [2] is given as “remained unchanged”.
For Rituximab, in data set [3], the “B-cell depletion in blood” value is listed as “most significant B-cell depletion”. In addition, the “activity of RTX after completion of the microneedle patch manufacturing process” value in data set [4] is recorded as “preserved”.
For `CC(C)Cc1ccc(C(C)C(=O)[O-])cc1.[Na+]` (centres unmarked) [ibuprofen, ibuprofen sodium salt], in data set [2], the “chemical structure during the fabrication process (FTIR)” value is “remained unchanged”.
